Test results from ChEMBL document CHEMBL1155206, “Synthesis and in vitro evaluation of 2,4-diamino-1,3,5-triazine derivatives as neuronal voltage-gated sodium channel blockers” (Bioorg Med Chem Lett, 2009).
pIC50: −log10 of the molar value.

Experiments:
Dihydrofolate reductase = target: T1, Dihydrofolate reductase (Bos taurus, UniProt P00376); test: Inhibition of bovine liver DHFR assessed as NADPH consumption during conversion of dihydrofolic acid to tetrahydrofolic acid
T1 sequence (P00376 whole entry): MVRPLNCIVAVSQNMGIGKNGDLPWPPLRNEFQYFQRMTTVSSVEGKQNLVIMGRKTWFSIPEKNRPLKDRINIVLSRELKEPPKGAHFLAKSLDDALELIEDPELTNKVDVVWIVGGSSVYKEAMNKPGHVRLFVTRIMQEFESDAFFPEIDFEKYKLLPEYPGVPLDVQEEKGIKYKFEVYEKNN

[1] = Displacement of [3H]BTX-B from neurotoxin site 2 of voltage gated sodium channel in rat cerebral cortex synaptoneurosomes after 30 mins by scintillation counting; assay type: tissue-based

Row | Structure (SMILES) | pIC50 (Dihydrofolate reductase) | pIC50 [1]
1 | CC1(C)N=C(N)N=C(N)N1Cc1ccccc1 | 4.71 | 4.27
2 | CC1(C)N=C(N)N=C(Nc2ccc(Cl)cc2)N1 | < 4.00 | 4.61
3 | CC1(C)N=C(N)N=C(Nc2ccccc2Cl)N1 | < 4.00 | 4.07
4 | Nc1nc(CCl)nc(Nc2ccc(Cl)c(Cl)c2)n1 | < 4.00 | 3.77
5 | COc1ccccc1NC1=NC(N)=NC(C)(C)N1 | < 4.00 | 3.46
6 | COc1cccc(NC2=NC(N)=NC(C)(C)N2)c1 | < 4.00 | 4.12
7 | Cc1ccc(N2C(N)=NC(N)=NC23CCCCC3)cc1 | < 4.00 | 5.38
8 | COc1ccccc1N1C(N)=NC(N)=NC12CCCCC2 | < 4.00 | 4.91
9 | CC1(C)N=C(N)N=C(Nc2ccccc2Br)N1 | < 4.00 | 4.24
10 | COc1ccc(CN2C(N)=NC(N)=NC2(C)C)cc1 | 4.23 | 4.22
11 | CC1(C)N=C(N)N=C(Nc2ccccc2)N1 | < 4.00 | 3.59
12 | NC1=NC2(CCCCC2)N(c2ccccc2)C(N)=N1 | < 4.00 | 4.83
13 | NC1=NC2(CCCCC2)N(c2ccc(Cl)cc2)C(N)=N1 | < 4.00 | 5.36
14 | Cc1ccccc1N1C(N)=NC(N)=NC12CCCCC2 | < 4.00 | 5.04
15 | COc1ccc(NC2=NC(N)=NC(C)(C)N2)cc1 | < 4.00 | 3.68
16 | CC1(C)N=C(N)N=C(N)N1Cc1ccc(Cl)cc1 | 4.52 | 4.45
17 | Nc1nc(CCl)nc(Nc2cccc([N+](=O)[O-])c2)n1 | < 4.00 | 3.72
18 | COc1cccc(N2C(N)=NC(N)=NC23CCCCC3)c1 | < 4.00 | 5.29

Row | Structure (SMILES) | pIC50 (Dihydrofolate reductase) | pIC50 [1]
19 | Cc1nc(N)nc(Nc2cccc(Cl)c2)n1 | < 4.00 | 3.61
20 | CC1(C)N=C(N)NC(Nc2ccc(Br)cc2)=N1 | < 4.00 | 4.74
21 | Cc1ccccc1NC1=NC(N)=NC(C)(C)N1 | < 4.00 | 3.24
22 | Cc1cccc(N2C(N)=NC(N)=NC23CCCCC3)c1 | < 4.00 | 5.33
23 | NC1=NC2(CCCCC2)N(c2ccccc2Cl)C(N)=N1 | < 4.00 | 4.89
24 | CC1(C)N=C(N)N=C(Nc2cccc(Br)c2)N1 | < 4.00 | 4.90
25 | NC1=NC2(CCCCC2)N(c2cccc(Cl)c2)C(N)=N1 | < 4.00 | 5.40
26 | CC1(C)N=C(N)N=C(Nc2cccc(Cl)c2)N1 | < 4.00 | 4.78
27 | Cc1ccc(CN2C(N)=NC(N)=NC2(C)C)cc1 | 4.61 | 4.49
28 | Cc1ccc(NC2=NC(N)=NC(C)(C)N2)cc1 | < 4.00 | 4.15
29 | Cc1cccc(NC2=NC(N)=NC(C)(C)N2)c1 | < 4.00 | 3.73
30 | Cc1nc(N)nc(Nc2cccc(Br)c2)n1 | < 4.00 | 3.70
31 | COc1ccc(N2C(N)=NC(N)=NC23CCCCC3)cc1 | < 4.00 | 5.11
32 | CC1(C)N=C(N)N=C(N)N1Cc1ccc(Cl)c(Cl)c1 | 4.89 | 4.72
33 | Cc1nc(N)nc(Nc2ccc(Cl)c(Cl)c2)n1 | < 4.00 | 3.56
34 | Nc1nc(CCl)nc(Nc2cccc(Br)c2)n1 | < 4.00 | 3.76
35 | O=C1NC(=O)C(c2ccccc2)(c2ccccc2)N1 [PHENYTOIN] | < 4.00 | 3.90
